# Measurements reported in ChEMBL document CHEMBL5126604, “Design, Synthesis, and Biological Evaluation of Pyrrole-2-carboxamide Derivatives as Mycobacterial Membrane Protein Large 3 Inhibitors for Treating Drug-Resistant Tuberculosis” (J Med Chem, 2022).
# Experiments:
# Vero = assay: Cytotoxicity against African green monkey vero cells assessed as reduction in cell viability measured after 48 hrs by MTT assay; assay type: functional, cell-based; conditions: Chlorocebus sabaeus
# [1] = tested on: Mycobacterium tuberculosis; assay: microbe, parasite or virus in culture; conditions: H37Rv, 168 h
# Description: Antimycobacterial activity against Mycobacterium tuberculosis H37Rv assessed as inhibition of bacterial growth measured after 7 days by microplate alamar blue assay
# in vitro = conditions: monkey, Vero cells
# Description: Selectivity index, ratio of IC50 for African green monkey vero cells to MIC for Mycobacterium tuberculosis H37Rv
# [2] = Metabolic stability in mouse liver microsomes at 0.5 uM measured after 15 to 120 mins in absence of NADPH by LC-MS/MS analysis; assay type: ADME, Microsome; conditions: time 15-120 min
# [3] = Metabolic stability in mouse liver microsomes at 0.5 uM measured after 15 to 120 mins in presence of NADPH by LC-MS/MS analysis; assay type: ADME, Microsome; conditions: time 15-120 min
# [4] = tested on: Mycolicibacterium smegmatis; assay: Antimycobacterial activity against Mycobacterium smegmatis harboring MsmgdeltammpL3/pMVGHI-mmpL3tb mutant assessed as reduction in bacterial growth measured after 16 hrs […]; assay type: functional
# [5] = tested on: Mycobacterium tuberculosis; assay: Antimycobacterial activity against Mycobacterium tuberculosis mc2 6206 assessed as decrease in mycolic acid transfer to cell wall arabinogalactan measured after 16 hrs using [14C]acetate by TLC analysis; assay type: functional, organism-based; conditions: dose 0.0625-1 µg/ml, DDE = dose-dependent effect
# [6] = tested on: Mycobacterium tuberculosis; assay: microbe, parasite or virus in culture; conditions: H37Rv mc2 6206, 16 h
# Description: Antimycobacterial activity against Mycobacterium tuberculosis H37Rv mc2 6206 assessed as reduction in bacterial growth measured after 16 hrs by TLC analysis
# [7] = tested on: Mycolicibacterium smegmatis; assay: Antimycobacterial activity against Mycobacterium smegmatis harboring MsmgdeltammpL3/pMVGHI-mmpL3tb G253E mutant assessed as reduction in bacterial growth measured after 16 hrs […]; assay type: functional
# [8] = tested on: Mycobacterium tuberculosis; assay: Antimycobacterial activity against Mycobacterium tuberculosis mc2 6206 assessed as decrease in trehalose dimycolate measured after 16 hrs using [14C]acetate by TLC analysis; assay type: functional, organism-based; conditions: DDE = dose-dependent effect
# [9] = tested on: Mycobacterium tuberculosis; assay type: functional, H37Rv; conditions: dose 100 mg/kg; route po; time 3-30 day
# [10] = molecular target: Voltage-gated inwardly rectifying potassium channel KCNH2 (Homo sapiens, UniProt Q12809)
# Voltage-gated inwardly rectifying potassium channel KCNH2, sequence (Q12809 whole entry): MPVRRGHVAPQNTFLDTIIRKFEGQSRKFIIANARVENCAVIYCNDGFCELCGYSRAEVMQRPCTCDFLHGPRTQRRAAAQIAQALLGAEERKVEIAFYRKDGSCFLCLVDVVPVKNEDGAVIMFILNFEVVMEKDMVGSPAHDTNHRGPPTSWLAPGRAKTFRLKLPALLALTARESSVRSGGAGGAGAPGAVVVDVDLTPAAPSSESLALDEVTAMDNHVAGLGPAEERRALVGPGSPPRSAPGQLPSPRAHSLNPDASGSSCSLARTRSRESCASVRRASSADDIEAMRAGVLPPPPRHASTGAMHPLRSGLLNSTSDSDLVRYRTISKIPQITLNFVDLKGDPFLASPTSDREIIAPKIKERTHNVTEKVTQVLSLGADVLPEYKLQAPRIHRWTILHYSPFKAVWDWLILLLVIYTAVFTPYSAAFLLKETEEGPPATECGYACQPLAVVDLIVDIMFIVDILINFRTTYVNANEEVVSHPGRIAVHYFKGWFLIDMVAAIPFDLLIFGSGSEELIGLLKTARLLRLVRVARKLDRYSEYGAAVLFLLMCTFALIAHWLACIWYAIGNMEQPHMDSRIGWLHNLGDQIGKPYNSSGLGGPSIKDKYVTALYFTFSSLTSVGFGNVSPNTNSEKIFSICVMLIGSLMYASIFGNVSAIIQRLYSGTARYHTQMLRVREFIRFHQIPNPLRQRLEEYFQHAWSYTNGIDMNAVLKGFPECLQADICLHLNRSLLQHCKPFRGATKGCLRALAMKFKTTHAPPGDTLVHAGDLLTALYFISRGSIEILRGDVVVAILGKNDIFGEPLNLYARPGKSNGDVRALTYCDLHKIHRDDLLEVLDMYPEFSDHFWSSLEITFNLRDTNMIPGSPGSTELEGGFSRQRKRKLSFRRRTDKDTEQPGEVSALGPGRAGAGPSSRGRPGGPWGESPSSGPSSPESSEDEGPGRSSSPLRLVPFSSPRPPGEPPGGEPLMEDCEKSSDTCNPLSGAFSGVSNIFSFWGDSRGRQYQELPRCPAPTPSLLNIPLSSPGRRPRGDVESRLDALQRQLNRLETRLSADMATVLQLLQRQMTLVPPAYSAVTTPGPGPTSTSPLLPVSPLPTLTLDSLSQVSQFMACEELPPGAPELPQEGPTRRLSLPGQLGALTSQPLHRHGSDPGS
# Description: Inhibition of hERG potassium channel in HEK293 cells at 0.3 to 30 uM by whole-cell patch clamp assay
structure (smiles),measurement,setting,value
O=C(NC1C2CC3CC(C2)CC1C3)c1cc(-c2ccccn2)c[nH]1 (stereo unspecified),IC50,Vero,47.3 µg/mL
same,MIC90,[1],0.12 µg/mL
same,selectivity ratio,in vitro,394
Nc1ncc(F)cc1-c1c[nH]c(C(=O)NC2C3CC4CC(C3)CC2C4)c1 (stereo unspecified),IC50,Vero,33.9 µg/mL
same,MIC90,[1],0.44 µg/mL
same,selectivity ratio,in vitro,77
CC1(C)CCC(NC(=O)c2cc(-c3ccc(Cl)cc3Cl)c[nH]2)CC1,MIC90,[1],0.5 µg/mL
Cc1nc(F)ccc1-c1c[nH]c(C(=O)NC2C3CC4CC(C3)CC2C4)c1 (stereo unspecified),IC50,Vero,27.7 µg/mL
same,Stability,[2],Stable
same,MIC90,[1],0.062 µg/mL
same,Stability,[3],32.3%
same,selectivity ratio,in vitro,447
O=C(Nc1ccccc1)c1cc(-c2ccc(Cl)cc2Cl)c[nH]1,MIC90,[1],> 32 µg/mL
COc1cc(F)ccc1-c1c[nH]c(C(=O)NC2C3CC4CC(C3)CC2C4)c1 (stereo unspecified),IC50,Vero,22 µg/mL
same,MIC90,[1],< 0.016 µg/mL
same,selectivity ratio,in vitro,1380
CC1(C)CCC(NC(=O)c2cc3c(Cl)cc(Cl)cc3[nH]2)CC1,IC50,Vero,10.5 µg/mL
same,MIC90,[1],0.015 µg/mL
same,selectivity ratio,in vitro,700
O=C(NC1CCCCCC1)c1cc(-c2ccc(Cl)cc2Cl)c[nH]1,MIC90,[1],1.9 µg/mL
NNC(=O)c1ccncc1 [ISONIAZID],MIC90,[1],0.04 µg/mL
O=C(NC1C2CC3CC(C2)CC1C3)c1cc(-c2ccc(O)cc2F)c[nH]1 (stereo unspecified),MIC90,[1],> 32 µg/mL
O=C(c1cc(-c2ccc(Cl)cc2Cl)c[nH]1)N1CCOCC1,MIC90,[1],14.7 µg/mL
Cc1ccc(-c2c[nH]c(C(=O)NC3C4CC5CC(C4)CC3C5)c2)cn1 (stereo unspecified),MIC90,[1],1 µg/mL
O=C(NC1C2CC3CC(C2)CC1C3)c1cc(-c2ccncc2F)c[nH]1 (stereo unspecified),MIC90,[1],0.11 µg/mL
same,selectivity ratio,in vitro,415
COc1cc(F)ccc1-c1c[nH]c(C(=O)NC2CCCCCCC2)c1,Stability,[2],Stable
same,MIC90,[1],< 0.016 µg/mL
same,Stability,[3],9.03%
O=C(NC12CC3CC(CC(C3)C1)C2)c1cc(-c2ccncc2Cl)c[nH]1,Stability,[2],Stable
same,MIC90,[1],0.03 µg/mL
same,Stability,[3],42.7%
O=C(NC1CCC(F)(F)CC1)c1cc(-c2ccc(Cl)cc2Cl)c[nH]1,MIC90,[1],6.1 µg/mL
O=C(NC1C2CC3CC(C2)CC1C3)c1cc(-c2ccccc2Cl)c[nH]1 (stereo unspecified),IC50,Vero,> 64 µg/mL
same,MIC90,[1],0.24 µg/mL
COc1ncccc1-c1c[nH]c(C(=O)NC2C3CC4CC(C3)CC2C4)c1 (stereo unspecified),Stability,[2],Stable
same,MIC90,[1],< 0.016 µg/mL
same,Stability,[3],0.63%
same,selectivity ratio,in vitro,737
O=C(NC1CCCCCCC1)c1cc(-c2ccc(Cl)cc2)c[nH]1,MIC90,[1],0.24 µg/mL
O=C(NC1C2CC3CC(C2)CC1C3)c1cc(-c2ccc(Cl)cc2)c[nH]1 (stereo unspecified),IC50,Vero,12.6 µg/mL
same,MIC90,[1],0.1 µg/mL
same,selectivity ratio,in vitro,126
O=C(NC1CCCCCCC1)c1cc(-c2ccc(F)cc2F)c[nH]1,MIC90,[4],0.25 µg/mL
same,inhibition,[5],Dde
same,MIC90,[1],< 0.016 µg/mL
same,MIC90,[6],0.125 µg/mL
same,MIC=>90,[7],2 µg/mL
same,inhibition,[8],Dde
CN(C(=O)c1cc(-c2ccc(Cl)cc2Cl)cn1C)C1C2CC3CC(C2)CC1C3 (stereo unspecified),MIC90,[1],> 32 µg/mL
COc1ccc(-c2c[nH]c(C(=O)NC3C4CC5CC(C4)CC3C5)c2)c(OC)c1 (stereo unspecified),IC50,Vero,> 64 µg/mL
same,MIC90,[1],0.24 µg/mL
COc1cnccc1-c1c[nH]c(C(=O)NC2C3CC4CC(C3)CC2C4)c1 (stereo unspecified),IC50,Vero,58.8 µg/mL
same,MIC90,[1],0.24 µg/mL
same,selectivity ratio,in vitro,245
O=C(NC12CC3CC(CC(C3)C1)C2)c1cc(-c2ccc(Cl)cc2Cl)c[nH]1,MIC90,[1],0.058 µg/mL
CCCNC(=O)c1cc(-c2ccc(Cl)cc2Cl)c[nH]1,MIC90,[1],12.5 µg/mL
O=C(NC12CC3CC(CC(C3)C1)C2)c1cc(-c2ccc(Cl)cc2)c[nH]1,MIC90,[1],0.155 µg/mL
O=C(NC1CCCCCCC1)c1cc(-c2ccc(Cl)cc2Cl)c[nH]1,MIC90,[1],0.23 µg/mL
O=C(NC1C2CC3CC(C2)CC1C3)c1cc(-c2cncnc2)c[nH]1 (stereo unspecified),MIC90,[1],0.96 µg/mL
O=C(NC1C2CC3CC(C2)CC1C3)c1cc(-c2ccc(F)nc2F)c[nH]1 (stereo unspecified),Activity,[9],2 log10CFU
same,MIC90,[4],0.5 µg/mL
same,Stability,[2],Stable
same,inhibition,[5],Dde
same,IC50,[10],> 30 µM
same,MIC90,[1],< 0.016 µg/mL
same,Stability,[3],43.3%
same,MIC90,[6],0.125 µg/mL
same,MIC=>90,[7],4 µg/mL
same,inhibition,[8],Dde
O=C(NC1C2CC3CC(C2)CC1C3)c1cc(-c2ccc(C(F)(F)F)cc2C(F)(F)F)c[nH]1 (stereo unspecified),MIC90,[1],1.08 µg/mL
